# Experiments:
# Test in all cases: Test D pre/postemergence
# Type in all cases: in vivo
# Conditions in all cases: scale 0 to 100 (100 = complete control)
# [1] = tested on: Russian thistle (Salsola kali)
# Source text: (§1) Seeds of plant species selected from catchweed bedstraw (galium; Galium aparine), common chickweed (Stellaria media), kochia (Kochia scoparia), lambsquarters (Chenopodium album), pigweed (Amaranthus retroflexus), Russian thistle (Salsola kali), wild buckwheat (Polygonum convolvulus), wild mustard (Sinapis arvensis), winter barley (Hordeum vulgare), and wheat (Triticum aestivum) were planted and treated preemergence with test chemicals formulated in a non-phytotoxic solvent mixture which included a surfactant.
# (§2) At the same time, plants selected from these crop and weed species were treated with postemergence applications of some of the test chemicals formulated in the same manner. Plants ranged in height from 2 to 18 cm (1- to 4-leaf stage) for postemergence treatments. Treated plants and controls were maintained in a controlled growth environment for 15 to 25 days after which time all species were compared to controls and visually evaluated. Plant response ratings, summarized in Table D, are based on a scale of 0 to 100 where 0 is no effect and 100 is complete control. A dash (-) response means no test result.
# [2] = tested on: catchweed bedstraw (galium; Galium aparine)
# Source text: as §1, §2
# [3] = tested on: common chickweed (Stellaria media)
# Source text: as §1, §2
# kochia (Kochia scoparia) = tested on: kochia (Kochia scoparia)
# Source text: as §1, §2
# [4] = tested on: lambsquarters (Chenopodium album)
# Source text: as §1, §2
# [5] = tested on: pigweed (Amaranthus retroflexus)
# Source text: as §1, §2
# [6] = tested on: wheat (Triticum aestivum)
# Source text: as §1, §2
# [7] = tested on: wild buckwheat (Polygonum convolvulus)
# Source text: as §1, §2
# [8] = tested on: wild mustard (Sinapis arvensis)
# Source text: as §1, §2
compound,measurement,setting,value
Nc1nc(C2CC2)nc(C=O)c1Br [Compound 26],"Plant response rating, Russian Thistle","[1]; Postemergence, 125 g ai/ha",40
same,"Plant response rating, Russian Thistle","[1]; Postemergence, 250 g ai/ha",40
same,"Plant response rating, Russian Thistle","[1]; Preemergence, 250 g ai/ha",100
same,"Plant response rating, Galium","[2]; Postemergence, 125 g ai/ha",70
same,"Plant response rating, Galium","[2]; Postemergence, 250 g ai/ha",85
same,"Plant response rating, Galium","[2]; Preemergence, 125 g ai/ha",85
same,"Plant response rating, Galium","[2]; Preemergence, 250 g ai/ha",100
same,"Plant response rating, Chickweed","[3]; Postemergence, 125 g ai/ha",45
same,"Plant response rating, Chickweed","[3]; Postemergence, 250 g ai/ha",55
same,"Plant response rating, Chickweed","[3]; Preemergence, 125 g ai/ha",60
same,"Plant response rating, Chickweed","[3]; Preemergence, 250 g ai/ha",65
same,"Plant response rating, Kochia","kochia (Kochia scoparia); Postemergence, 125 g ai/ha",35
same,"Plant response rating, Kochia","kochia (Kochia scoparia); Postemergence, 250 g ai/ha",55
same,"Plant response rating, Kochia","kochia (Kochia scoparia); Preemergence, 125 g ai/ha",55
same,"Plant response rating, Kochia","kochia (Kochia scoparia); Preemergence, 250 g ai/ha",75
same,"Plant response rating, Lambsquarters","[4]; Postemergence, 125 g ai/ha",40
same,"Plant response rating, Lambsquarters","[4]; Postemergence, 250 g ai/ha",50
same,"Plant response rating, Lambsquarters","[4]; Preemergence, 125 g ai/ha",60
same,"Plant response rating, Lambsquarters","[4]; Preemergence, 250 g ai/ha",65
same,"Plant response rating, Pigweed","[5]; Postemergence, 125 g ai/ha",60
same,"Plant response rating, Pigweed","[5]; Postemergence, 250 g ai/ha",70
same,"Plant response rating, Pigweed","[5]; Preemergence, 125 g ai/ha",65
same,"Plant response rating, Pigweed","[5]; Preemergence, 250 g ai/ha",100
same,"Plant response rating, Wheat","[6]; Postemergence, 125 g ai/ha",45
same,"Plant response rating, Wheat","[6]; Postemergence, 250 g ai/ha",20
same,"Plant response rating, Wheat","[6]; Preemergence, 125 g ai/ha",25
same,"Plant response rating, Wheat","[6]; Preemergence, 250 g ai/ha",35
same,"Plant response rating, Buckwheat, Wild","[7]; Postemergence, 125 g ai/ha",35
same,"Plant response rating, Buckwheat, Wild","[7]; Postemergence, 250 g ai/ha",55
same,"Plant response rating, Buckwheat, Wild","[7]; Preemergence, 125 g ai/ha",65
same,"Plant response rating, Buckwheat, Wild","[7]; Preemergence, 250 g ai/ha",95
same,"Plant response rating, Mustard, Wild","[8]; Postemergence, 125 g ai/ha",60
same,"Plant response rating, Mustard, Wild","[8]; Postemergence, 250 g ai/ha",75
same,"Plant response rating, Mustard, Wild","[8]; Preemergence, 125 g ai/ha",65
same,"Plant response rating, Mustard, Wild","[8]; Preemergence, 250 g ai/ha",65
COC(=O)c1nc(C2CC2C)nc(N)c1Br (stereo not drawn) [Compound 28],"Plant response rating, Russian Thistle","[1]; Postemergence, 62 g ai/ha",65
same,"Plant response rating, Russian Thistle","[1]; Postemergence, 125 g ai/ha",70
same,"Plant response rating, Russian Thistle","[1]; Postemergence, 250 g ai/ha",70
same,"Plant response rating, Russian Thistle","[1]; Preemergence, 62 g ai/ha",45
same,"Plant response rating, Russian Thistle","[1]; Preemergence, 125 g ai/ha",80
same,"Plant response rating, Russian Thistle","[1]; Preemergence, 250 g ai/ha",100
same,"Plant response rating, Galium","[2]; Postemergence, 62 g ai/ha",100
same,"Plant response rating, Galium","[2]; Postemergence, 250 g ai/ha",100
same,"Plant response rating, Galium","[2]; Preemergence, 62 g ai/ha",100
same,"Plant response rating, Galium","[2]; Preemergence, 125 g ai/ha",100
same,"Plant response rating, Galium","[2]; Preemergence, 250 g ai/ha",100
same,"Plant response rating, Chickweed","[3]; Postemergence, 62 g ai/ha",65
same,"Plant response rating, Chickweed","[3]; Postemergence, 125 g ai/ha",65
same,"Plant response rating, Chickweed","[3]; Postemergence, 250 g ai/ha",65
same,"Plant response rating, Chickweed","[3]; Preemergence, 62 g ai/ha",60
same,"Plant response rating, Chickweed","[3]; Preemergence, 125 g ai/ha",60
same,"Plant response rating, Chickweed","[3]; Preemergence, 250 g ai/ha",60
same,"Plant response rating, Kochia","kochia (Kochia scoparia); Postemergence, 62 g ai/ha",70
same,"Plant response rating, Kochia","kochia (Kochia scoparia); Postemergence, 125 g ai/ha",75
same,"Plant response rating, Kochia","kochia (Kochia scoparia); Postemergence, 250 g ai/ha",75
same,"Plant response rating, Kochia","kochia (Kochia scoparia); Preemergence, 62 g ai/ha",45
same,"Plant response rating, Kochia","kochia (Kochia scoparia); Preemergence, 125 g ai/ha",80
same,"Plant response rating, Kochia","kochia (Kochia scoparia); Preemergence, 250 g ai/ha",100
same,"Plant response rating, Lambsquarters","[4]; Postemergence, 62 g ai/ha",65
same,"Plant response rating, Lambsquarters","[4]; Postemergence, 125 g ai/ha",70
same,"Plant response rating, Lambsquarters","[4]; Postemergence, 250 g ai/ha",75
same,"Plant response rating, Lambsquarters","[4]; Preemergence, 62 g ai/ha",60
same,"Plant response rating, Lambsquarters","[4]; Preemergence, 125 g ai/ha",60
same,"Plant response rating, Lambsquarters","[4]; Preemergence, 250 g ai/ha",60
same,"Plant response rating, Pigweed","[5]; Postemergence, 62 g ai/ha",60
same,"Plant response rating, Pigweed","[5]; Postemergence, 125 g ai/ha",60
same,"Plant response rating, Pigweed","[5]; Postemergence, 250 g ai/ha",70
same,"Plant response rating, Pigweed","[5]; Preemergence, 62 g ai/ha",45
same,"Plant response rating, Pigweed","[5]; Preemergence, 250 g ai/ha",80
same,"Plant response rating, Wheat","[6]; Postemergence, 62 g ai/ha",20
same,"Plant response rating, Wheat","[6]; Postemergence, 125 g ai/ha",35
same,"Plant response rating, Wheat","[6]; Postemergence, 250 g ai/ha",35
same,"Plant response rating, Wheat","[6]; Preemergence, 62 g ai/ha",20
same,"Plant response rating, Wheat","[6]; Preemergence, 125 g ai/ha",35
same,"Plant response rating, Wheat","[6]; Preemergence, 250 g ai/ha",35
same,"Plant response rating, Buckwheat, Wild","[7]; Postemergence, 62 g ai/ha",35
same,"Plant response rating, Buckwheat, Wild","[7]; Postemergence, 125 g ai/ha",55
same,"Plant response rating, Buckwheat, Wild","[7]; Postemergence, 250 g ai/ha",60
same,"Plant response rating, Buckwheat, Wild","[7]; Preemergence, 62 g ai/ha",45
same,"Plant response rating, Buckwheat, Wild","[7]; Preemergence, 125 g ai/ha",45
same,"Plant response rating, Buckwheat, Wild","[7]; Preemergence, 250 g ai/ha",60
same,"Plant response rating, Mustard, Wild","[8]; Postemergence, 62 g ai/ha",45
same,"Plant response rating, Mustard, Wild","[8]; Postemergence, 125 g ai/ha",60
same,"Plant response rating, Mustard, Wild","[8]; Postemergence, 250 g ai/ha",60
same,"Plant response rating, Mustard, Wild","[8]; Preemergence, 62 g ai/ha",60
same,"Plant response rating, Mustard, Wild","[8]; Preemergence, 125 g ai/ha",60
same,"Plant response rating, Mustard, Wild","[8]; Preemergence, 250 g ai/ha",60

# — patent publication US8802597B2, “Herbicidal pyrimidines” (E I du Pont de Nemours and Company, priority 2003, dated 2014)
